IC50 data for 77 molecules are collected here from patent US10035801B2, “Pyrazolo compounds and uses thereof” (CONSTELLATION PHARMACEUTICALS, INC., priority 2013, dated 2018).

For this test, the target named is T1, KDM5A (Homo sapiens, UniProt P29375).
T1 construct: Full length KDM5A enzyme was expressed and purified inhouse; made in house
Kind of test: KDM5 enzyme assay, KDM5A HTRF (Example 463). Format: biochemical.

[1] abbreviates: compounds of Examples 1-432, read-out: Example 463 Assay KDM5A HTRF IC50.

Where two headings read alike, the source gives them in different places.

T1 sequence (P29375 whole entry): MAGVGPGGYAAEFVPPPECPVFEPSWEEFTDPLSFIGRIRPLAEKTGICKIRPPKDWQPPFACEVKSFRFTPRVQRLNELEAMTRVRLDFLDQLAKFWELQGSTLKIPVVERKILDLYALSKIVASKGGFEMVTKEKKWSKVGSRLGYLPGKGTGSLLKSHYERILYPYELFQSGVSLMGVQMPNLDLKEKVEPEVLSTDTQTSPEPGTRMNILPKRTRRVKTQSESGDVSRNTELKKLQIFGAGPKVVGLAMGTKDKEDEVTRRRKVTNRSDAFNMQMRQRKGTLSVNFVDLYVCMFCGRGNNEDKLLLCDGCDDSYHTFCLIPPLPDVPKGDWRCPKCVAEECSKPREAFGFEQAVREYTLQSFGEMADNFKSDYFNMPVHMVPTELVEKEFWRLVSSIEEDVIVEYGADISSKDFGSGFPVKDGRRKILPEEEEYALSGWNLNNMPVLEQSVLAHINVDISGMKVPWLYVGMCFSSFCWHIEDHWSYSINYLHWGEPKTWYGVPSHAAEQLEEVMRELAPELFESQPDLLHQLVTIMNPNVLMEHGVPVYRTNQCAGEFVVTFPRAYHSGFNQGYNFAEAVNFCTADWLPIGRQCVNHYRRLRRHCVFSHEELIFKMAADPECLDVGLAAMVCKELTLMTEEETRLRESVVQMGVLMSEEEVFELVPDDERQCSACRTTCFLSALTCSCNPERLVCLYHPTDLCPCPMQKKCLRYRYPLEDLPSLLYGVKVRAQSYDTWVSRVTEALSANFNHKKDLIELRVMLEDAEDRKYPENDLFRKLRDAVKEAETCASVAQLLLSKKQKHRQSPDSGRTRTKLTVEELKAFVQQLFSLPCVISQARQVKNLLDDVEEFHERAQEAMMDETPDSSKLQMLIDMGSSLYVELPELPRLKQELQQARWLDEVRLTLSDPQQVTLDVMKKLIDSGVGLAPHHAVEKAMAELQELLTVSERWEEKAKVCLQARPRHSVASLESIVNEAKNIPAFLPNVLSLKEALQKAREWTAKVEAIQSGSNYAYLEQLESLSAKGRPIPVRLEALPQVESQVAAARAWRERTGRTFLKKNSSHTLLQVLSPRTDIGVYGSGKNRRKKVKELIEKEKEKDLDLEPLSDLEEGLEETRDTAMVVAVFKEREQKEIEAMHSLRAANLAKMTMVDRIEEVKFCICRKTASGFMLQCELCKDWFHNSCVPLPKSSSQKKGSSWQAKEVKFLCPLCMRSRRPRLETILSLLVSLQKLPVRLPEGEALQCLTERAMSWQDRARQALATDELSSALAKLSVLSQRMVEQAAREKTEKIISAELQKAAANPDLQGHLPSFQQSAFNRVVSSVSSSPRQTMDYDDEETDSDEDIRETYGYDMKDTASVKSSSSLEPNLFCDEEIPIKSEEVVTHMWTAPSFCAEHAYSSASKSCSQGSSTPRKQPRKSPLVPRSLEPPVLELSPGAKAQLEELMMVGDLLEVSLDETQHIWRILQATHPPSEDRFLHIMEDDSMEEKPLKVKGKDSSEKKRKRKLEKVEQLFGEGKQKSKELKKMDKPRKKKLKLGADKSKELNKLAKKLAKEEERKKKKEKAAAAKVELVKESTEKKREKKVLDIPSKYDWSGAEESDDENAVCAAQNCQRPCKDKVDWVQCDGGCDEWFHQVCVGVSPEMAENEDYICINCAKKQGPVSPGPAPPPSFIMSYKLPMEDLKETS

Turning to `CC(=O)NCCCCc1c(-c2ccccc2)[nH]c2c(C#N)cnn2c1=O` [Example 250], under setting [1], the half-maximal inhibitory concentration (IC50) (commonly the concentration that gives 50% inhibition) is 5700 nM. As for `CC(=O)NCCCc1c(-c2ccccc2)[nH]c2c(C#N)cnn2c1=O` [Example 251], under setting [1], the IC50 amounted to 8000 nM.

For the molecule `N#Cc1cnn2c(=O)c(CCCCN)c(-c3ccccc3)[nH]c12` [Example 252], the IC50 under setting [1] was 7630 nM.

In the case of `CC(C)c1c(-c2cnn(C(C)c3cscn3)c2)[nH]c2c(C#N)cnn2c1=O` (centres unmarked) [Example 253], under setting [1], the IC50 was 13 nM. `CC(C)c1c(-c2cnn(C3CCOCC3)c2)[nH]c2c(C#N)cnn2c1=O` [Example 254]: the IC50 under setting [1] was 33 nM. Same read-out and setting: to `COc1cc(-c2[nH]c3c(C#N)cnn3c(=O)c2C(C)C)ccc1C(F)(F)F` [Example 255] belongs 35 nM; to `COC(=O)c1cc(-c2[nH]c3c(C#N)cnn3c(=O)c2C(C)C)ccc1Cl` [Example 256], 15 nM.

With `CC(C)c1c(-c2ccc(OC(F)(F)F)cc2)[nH]c2c(C#N)cnn2c1=O` [Example 257], half-maximal inhibition (IC50) required 37 nM.

As to `Cc1cc(-c2[nH]c3c(C#N)cnn3c(=O)c2C(C)C)ccc1OC(F)(F)F` [Example 258], under setting [1], the 50% inhibitory concentration (IC50) stood at 44 nM.

`CC(C)c1c(-c2ccc(C3CC3)c(C(F)(F)F)c2)[nH]c2c(C#N)cnn2c1=O` [Example 259]: the IC50 under setting [1] came to 43 nM.

As for `CC(C)c1c(-c2ccc3c(c2)CC(C)(C)O3)[nH]c2c(C#N)cnn2c1=O` [Example 260], the IC50 under setting [1] turned out to be 36 nM. As for `COc1cc(OC)cc(-c2[nH]c3c(C#N)cnn3c(=O)c2C(C)C)c1` [Example 261], the IC50 under setting [1] is 31 nM. Regarding `CC(C)c1c(-c2ccc(F)c(F)c2)[nH]c2c(C#N)cnn2c1=O` [Example 262], the IC50 under setting [1] is 21 nM. The same measure, in the same setting: to `CC(C)c1c(-c2ccc(-c3ccccc3)cc2)[nH]c2c(C#N)cnn2c1=O` [Example 263] belongs 28 nM; to `CC(C)c1c(-c2cc(F)cc(Cl)c2)[nH]c2c(C#N)cnn2c1=O` [Example 264], 21 nM; to `CC(C)c1c(-c2cc(C(F)(F)F)cc(C(F)(F)F)c2)[nH]c2c(C#N)cnn2c1=O` [Example 265], 40 nM. As for `COc1cc(F)cc(-c2[nH]c3c(C#N)cnn3c(=O)c2C(C)C)c1` [Example 266], under setting [1], the IC50 was determined as 29 nM.

Consider `CC(C)c1c(-c2cccc(C(N)=O)c2)[nH]c2c(C#N)cnn2c1=O` [Example 267], for which, under setting [1], the concentration for half-maximal inhibition (IC50) was 9.8 nM.

For the molecule `CC(C)c1c(-c2ccc(OCC3CC3)cc2)[nH]c2c(C#N)cnn2c1=O` [Example 268], under setting [1], the half-inhibitory concentration (IC50) amounted to 23 nM. Still for that read-out and setting: to `CC(C)c1c(-c2cc(F)cc(NC(=O)OCc3ccccc3)c2)[nH]c2c(C#N)cnn2c1=O` [Example 269] belongs 19 nM. As to `CC(C)c1c(-c2cccc(-n3cccn3)c2)[nH]c2c(C#N)cnn2c1=O` [Example 270], the IC50 under setting [1] stood at 13 nM. `CC(C)c1c(-c2cnn(C3CCCC3O)c2)[nH]c2c(C#N)cnn2c1=O` (centres unmarked) [Example 271]: the IC50 under setting [1] was 24 nM.

As to `CNS(=O)(=O)c1cccc(-c2[nH]c3c(C#N)cnn3c(=O)c2C(C)C)c1` [Example 273], the IC50 under setting [1] turned out to be 23 nM. For the molecule `CC(C)c1c(-c2ccc(C(C)(C)O)cc2)[nH]c2c(C#N)cnn2c1=O` [Example 274], the concentration for half-maximal inhibition (IC50) under setting [1] is 73 nM. For `CC(C)c1c(-c2ccnc(C(F)(F)F)c2)[nH]c2c(C#N)cnn2c1=O` [Example 275], the IC50 under setting [1] turned out to be 34 nM. As for `CC(C)c1c(-c2ccc(Oc3ccccc3)nc2)[nH]c2c(C#N)cnn2c1=O` [Example 276], under setting [1], the concentration for half-maximal inhibition (IC50) was 35 nM. Molecule `COc1cc(-c2[nH]c3c(C#N)cnn3c(=O)c2C(C)C)ccn1` [Example 277] gave an IC50 of 32 nM.

Consider `Cc1nc(-c2ccccc2)sc1-c1[nH]c2c(C#N)cnn2c(=O)c1C(C)C` [Example 278], for which the IC50 under setting [1] amounted to 76 nM. For `CC(C)c1c(-c2cc(N)cc(C#N)c2)[nH]c2c(C#N)cnn2c1=O` [Example 279], the IC50 under setting [1] stood at 24 nM. `CC(C)c1c(-c2cnn(C3CCOC3)c2)[nH]c2c(C#N)cnn2c1=O` (centres unmarked) [Example 280]: under setting [1], the IC50 is 15 nM. For the molecule `CCNC(=O)c1cccc(-c2[nH]c3c(C#N)cnn3c(=O)c2C(C)C)c1` [Example 281], the IC50 under setting [1] was found to be 32 nM. Same read-out and setting: as for `CC(C)c1c(-c2cccc(CC(N)=O)c2)[nH]c2c(C#N)cnn2c1=O` [Example 282], the figure is 8 nM; as for `CC(C)c1c(-c2ccc(-c3ccccc3)nc2)[nH]c2c(C#N)cnn2c1=O` [Example 283], 37 nM; as for `CC(C)c1c(-c2cnn(C3CCCOC3)c2)[nH]c2c(C#N)cnn2c1=O` (centres unmarked) [Example 285], 23 nM. Still for that read-out and setting: as for `COCC(C)n1cc(-c2[nH]c3c(C#N)cnn3c(=O)c2C(C)C)cn1` (centres unmarked) [Example 286], the figure is 30 nM. Take `CCOCCn1cc(-c2[nH]c3c(C#N)cnn3c(=O)c2C(C)C)cn1` [Example 287]: the half-inhibitory concentration (IC50) under setting [1] is 22 nM. `CC(=O)N1CC=C(c2[nH]c3c(C#N)cnn3c(=O)c2C(C)C)C1` [Example 288]: under setting [1], the half-inhibitory concentration (IC50) was 12 nM. In the case of `CC(=O)N1CCC=C(c2[nH]c3c(C#N)cnn3c(=O)c2C(C)C)C1` [Example 289], under setting [1], the IC50 was 35 nM.

Consider `CCC(=O)N1CCC=C(c2[nH]c3c(C#N)cnn3c(=O)c2C(C)C)C1` [Example 290], for which, under setting [1], the IC50 worked out at 39 nM. On to `CCC(=O)N1CC=C(c2[nH]c3c(C#N)cnn3c(=O)c2C(C)C)C1` [Example 291], for which the IC50 under setting [1] came to 55 nM. On the same count and under the same terms, to `CC(C)c1c(C2=CCNC2)[nH]c2c(C#N)cnn2c1=O` [Example 293] belongs 19 nM; to `CC(C)c1c(C2=CCCNC2)[nH]c2c(C#N)cnn2c1=O` [Example 294], 62 nM; to `CC(C)c1c(C2=CCCN(C)C2)[nH]c2c(C#N)cnn2c1=O` [Example 295], 39 nM. With `C=CC(=O)N1CCC=C(c2[nH]c3c(C#N)cnn3c(=O)c2C(C)C)C1` [Example 296], the IC50 under setting [1] worked out at 47 nM. `C=CC(=O)N1CC=C(c2[nH]c3c(C#N)cnn3c(=O)c2C(C)C)C1` [Example 297]: under setting [1], the IC50 turned out to be 28 nM. For the molecule `Cc1cc(-c2[nH]c3c(C#N)cnn3c(=O)c2C(C)C)cc(C)c1Cl` [Example 298], the IC50 under setting [1] was found to be 24 nM.

Take `Cc1cc(-c2[nH]c3c(C#N)cnn3c(=O)c2C(C)C)ccc1C#N` [Example 299]: under setting [1], the IC50 worked out at 25 nM.

On to `CC(C)c1c(-c2ccc3c(c2)CCC3=O)[nH]c2c(C#N)cnn2c1=O` [Example 300], for which the IC50 under setting [1] worked out at 18 nM. With `CC(C)c1c(-c2ccc(C(F)(F)F)c(C(F)(F)F)c2)[nH]c2c(C#N)cnn2c1=O` [Example 301], the IC50 under setting [1] worked out at 170 nM. On to `Cc1cc(-c2[nH]c3c(C#N)cnn3c(=O)c2C(C)C)ccc1C(F)(F)F` [Example 302], for which, under setting [1], the IC50 came out at 52 nM.

In the case of `CC(C)c1c(-c2cnn(Cc3cccc4ccsc34)c2)[nH]c2c(C#N)cnn2c1=O` [Example 303], the IC50 under setting [1] came to 15 nM. Turning to `CC(C)c1c(-c2ccc(F)c(C(=O)NC3CCCCC3)c2)[nH]c2c(C#N)cnn2c1=O` [Example 304], the concentration for half-maximal inhibition (IC50) under setting [1] amounted to 52 nM. Regarding `CC(C)c1c(-c2ccc(N3CCOCC3)cc2)[nH]c2c(C#N)cnn2c1=O` [Example 305], the IC50 under setting [1] was determined as 47 nM. `CC(C)c1c(-c2ccc(N3CCN(C(=O)OC(C)(C)C)CC3)cc2)[nH]c2c(C#N)cnn2c1=O` [Example 306]: the IC50 under setting [1] worked out at 200 nM. Same read-out and setting: to `Cc1cc(Cl)cc(-c2[nH]c3c(C#N)cnn3c(=O)c2C(C)C)c1` [Example 307] belongs 25 nM; to `CC(C)c1c(-c2cccc(S(C)(=O)=O)c2)[nH]c2c(C#N)cnn2c1=O` [Example 308], 17 nM. As to `CC(C)c1c(-c2ccc(NS(C)(=O)=O)cc2)[nH]c2c(C#N)cnn2c1=O` [Example 309], the IC50 under setting [1] stood at 37 nM. With `CC(C)c1c(-c2ccc(CN3CCOCC3)cc2)[nH]c2c(C#N)cnn2c1=O` [Example 310], the IC50 under setting [1] amounted to 19 nM.

Regarding `CC(C)c1c(-c2cccc(N3CCOCC3)c2)[nH]c2c(C#N)cnn2c1=O` [Example 311], under setting [1], the IC50 amounted to 28 nM.

Take `CC(C)c1c(-c2ccc(Oc3ccccc3)cc2)[nH]c2c(C#N)cnn2c1=O` [Example 312]: the IC50 under setting [1] turned out to be 28 nM. As to `C=CC(=O)NCCn1cc(-c2[nH]c3c(C#N)cnn3c(=O)c2C(C)C)cn1` [Example 313], the IC50 under setting [1] stood at 18 nM. Regarding `CC(C)c1c(-c2cnn(CCN)c2)[nH]c2c(C#N)cnn2c1=O` [Example 314], the IC50 under setting [1] was found to be 5.2 nM. With `Cc1ccc(-c2[nH]c3c(C#N)cnn3c(=O)c2C(C)C)cc1C1CC1` [Example 315], under setting [1], the IC50 is 24 nM. Turning to `CCOc1cccc(-c2[nH]c3c(C#N)cnn3c(=O)c2C(C)C)c1` [Example 316], the IC50 under setting [1] is 34 nM. For `CC(C)c1c(-c2cccc(CO)c2)[nH]c2c(C#N)cnn2c1=O` [Example 317], the IC50 under setting [1] was determined as 25 nM. Consider `CC(C)c1c(-c2cnn(CCNC(=O)OC(C)(C)C)c2)[nH]c2c(C#N)cnn2c1=O` [Example 318], for which the IC50 under setting [1] is 21 nM. Consider `CC(C)c1c(-c2cccc(OCCc3ccccc3)c2)[nH]c2c(C#N)cnn2c1=O` [Example 319], for which, under setting [1], the IC50 worked out at 46 nM. For the molecule `CC(C)c1c(C2=CCNCC2)[nH]c2c(C#N)cnn2c1=O` [Example 320], under setting [1], the IC50 was 20 nM.

Consider `C=CS(=O)(=O)NCCn1cc(-c2[nH]c3c(C#N)cnn3c(=O)c2C(C)C)cn1` [Example 321], for which the concentration for half-maximal inhibition (IC50) under setting [1] was found to be 23 nM.

`CC(C)c1c(-c2ccc(Nc3ccccc3)cc2)[nH]c2c(C#N)cnn2c1=O` [Example 322]: the IC50 under setting [1] came out at 10 nM. As to `Cc1n[nH]cc1-c1[nH]c2c(C#N)cnn2c(=O)c1C(C)C` [Example 323], the IC50 under setting [1] was 31 nM.

On to `CC(C)c1c(-c2ccc(OCc3ccccc3)cc2)[nH]c2c(C#N)cnn2c1=O` [Example 324], for which, under setting [1], the IC50 amounted to 26 nM.

As to `CC(C)c1c(-c2cc(F)cc(F)c2)[nH]c2c(C#N)cnn2c1=O` [Example 325], the 50% inhibitory concentration (IC50) under setting [1] came out at 19 nM. On to `CC(C)c1c(-c2cc(F)cc(C(F)(F)F)c2)[nH]c2c(C#N)cnn2c1=O` [Example 326], for which the 50% inhibitory concentration (IC50) under setting [1] amounted to 14 nM. `CCS(=O)(=O)c1cccc(-c2[nH]c3c(C#N)cnn3c(=O)c2C(C)C)c1` [Example 327]: the half-maximal inhibitory concentration (IC50) under setting [1] was 48 nM.

For `CC(C)c1c(-c2cccc(OC(F)(F)F)c2)[nH]c2c(C#N)cnn2c1=O` [Example 328], the 50% inhibitory concentration (IC50) under setting [1] was 30 nM. On to `CC(C)c1c(-c2cnn(Cc3cncs3)c2)[nH]c2c(C#N)cnn2c1=O` [Example 329], for which, under setting [1], the IC50 worked out at 11 nM.
